Calls of active or inactive are those of the source. The rule behind the calls is not given here.
Columns and labels:
[1] = system: NIH3T3; experiment: Cytotoxicity against mouse NIH/3T3 cells after 56 to 60 hrs by MTT assay in presence of 3.5 nM of growth factor NT3; format: cell-based
[2] = system: 4T1; experiment: Cytotoxicity against mouse 4T1 cells expressing TrkC receptor after 30 hrs by Calcein-AM assay; format: functional, cell-based; conditions: 4T1, 30 h
[3] = system: NIH3T3; experiment: Cytotoxicity against mouse NIH/3T3 cells expressing TrkC receptor after 56 to 60 hrs by MTT assay in presence of 20 uM of IY-IY-TEG; format: functional, cell-based
[4] = system: NIH3T3; experiment: Cytotoxicity against mouse NIH/3T3 cells expressing TrkC receptor after 56 to 60 hrs by MTT assay in presence of 3.5 nM of growth factor NT3; format: functional, cell-based
[5] = system: NIH3T3; experiment: Cytotoxicity against mouse NIH/3T3 cells after 56 to 60 hrs by MTT assay in presence of 20 uM of IY-IY-TEG; format: cell-based
[6] = system: NIH3T3; experiment: Cytotoxicity against mouse NIH/3T3 cells expressing TrkC receptor after 56 to 60 hrs by MTT assay; format: functional, cell-based
[7] = system: NIH3T3; experiment: Cytotoxicity against mouse NIH/3T3 cells after 56 to 60 hrs by MTT assay; format: cell-based; conditions: for IC50: Mus musculus, NIH3T3; for Activity: mouse, nih3t3
[8] = system: MCF7; experiment: Cytotoxicity against human MCF7 cells; format: functional, cell-based
[9] = Cytotoxicity against CHO cells; format: cell-based, Cricetulus griseus; conditions: chinese hamster, read-out: ED50 (the source's name)
[10] = Mus musculus, NIH3T3, read-out: IC50

SMILES: CC[C@H](C)[C@H](N)c1cn([C@@H](Cc2ccc(O)cc2)C(=O)N2CCN(c3nc(NCCOCCOCCOCc4cn(CC#Cc5ccc(-c6c7ccc(=[N+]8CCCCC8)cc-7oc7cc(N8CCCCC8)ccc67)cc5)nn4)nc(N4CCN(C(=O)[C@H](Cc5ccc(O)cc5)n5cc([C@@H](N)[C@@H](C)CC)nn5)CC4)n3)CC2)nn1
- Activity [1]: Toxic
- IC50 [2]: 19.9 µM
- Activity [3]: inactive
- Activity [4]: inactive
- Activity [5]: Toxic
- IC50 [6, 10]: 15.8 µM
- IC50 [7]: 27.6 µM

SMILES: S=c1nc[nH]c2c1ncn2CCOCCOCCn1cc(COCCOCCOCCNc2nc(N3CCOCC3)nc(N3CCOCC3)n2)nn1
- IC50 ([6]; nih3t3): Not Active
- Activity [7]: Non-toxic

SMILES: CN(C)c1ccc2c(-c3ccccc3)c3ccc(N(C)C)cc3[o+]c2c1 [ROSAMINE]
- IC50 [8]: 0.39 µM

SMILES: Sc1ncnc2nc[nH]c12 [MERCAPTOPURINE ANHYDROUS]
- IC50 [8]: 2.79 µM
- CC50 [9]: 50 µM

SMILES: C#CCOCCOCCOCCNc1nc(N2CCN(C(=O)[C@H](Cc3ccc(O)cc3)n3cc([C@@H](N)[C@@H](C)CC)nn3)CC2)nc(N2CCN(C(=O)[C@H](Cc3ccc(O)cc3)n3cc([C@@H](N)[C@@H](C)CC)nn3)CC2)n1
- IC50 ([6]; nih3t3): Not Active
- Activity [7]: Non-toxic

SMILES: CC[C@H](C)[C@H](N)c1cn([C@@H](Cc2ccc(O)cc2)C(=O)N2CCN(c3nc(NCCOCCOCCOCc4cn(CCOCCOCCn5cnc6c(=S)nc[nH]c65)nn4)nc(N4CCN(C(=O)[C@H](Cc5ccc(O)cc5)n5cc([C@@H](N)[C@@H](C)CC)nn5)CC4)n3)CC2)nn1
- IC50 ([6]; nih3t3): Active
- Activity [7]: Non-toxic

SMILES: CCn1cnc2c(=S)nc[nH]c21
- CC50 [9]: 600 µM

SMILES: CCCCn1cnc2c(=S)nc[nH]c21
- CC50 [9]: 400 µM

SMILES: CC[C@H](C)[C@@H](C(=O)N1CCN(c2nc(NCCOCCOCCOCc3cn(CC#Cc4ccc(-c5c6ccc(=[N+]7CCCCC7)cc-6oc6cc(N7CCCCC7)ccc56)cc4)nn3)nc(N3CCN(C(=O)[C@H]([C@@H](C)CC)n4cc([C@@H](N)Cc5ccc(O)cc5)nn4)CC3)n2)CC1)n1cc([C@@H](N)Cc2ccc(O)cc2)nn1
- Activity [1]: Toxic
- Activity [3]: Active
- Activity [4]: Active
- Activity [5]: Toxic
- IC50 [6, 10]: 25.8 µM
- IC50 [7]: 25.8 µM

From ChEMBL document CHEMBL2203166, “Small Molecule Ligands For Active Targeting Of TrkC-expressing Tumor Cells” (ACS Med Chem Lett, 2012)
